Test results reported in patent US20240207264A1, “PHARMACEUTICAL COMPOSITIONS COMPRISING INHIBITORS OF THE ANDROGEN RECEPTOR AND USES THEREOF” (ESSA PHARMA INC., priority 2021, published 2024).

How the values were obtained:
[1] = Gastric-to-intestinal buffer (G-IB) transfer dissolution test; format: physicochemical; details: 0.5% SIF in PBS pH 6.5, dose 150 μgA/mL
Description: Dissolution: The crystalline Compound A and the five SDD compositions (A-E from Example 4) is were tested in a 2-stage dissolution test designed to evaluate dissolution rate as well as inhibition of crystallization on transfer from simulated gastric to simulated intestinal media. Additionally, SDD composition E was also tested with additional HPMCAS-HF powder at a ratio of 1:1 SDD/HPMCAS-HF (SDD composition F).
For the gastric-to-intestinal buffer (G-IB) transfer dissolution test, pH 2 (“gastric”) media was added to each sample at a target dose concentration of 300 μgA/mL. After 30 minutes of exposure to gastric media, concentrated simulated intestinal buffer (TB) is added to reach a final composition of 0.5% SIF in PBS, pH 6.5 at half the dose concentration (150 μgA/mL). The concentration was monitored by U fiber optic probes in situ as well as being assessed by either microcentrifugation (15,800×g) or ultracentrifugation (380,000×g).
The microcentrifuge separates the precipitate (undissolved drug) and total solubilized drug Total solubilized drug consists of three solubilized species: freely solubilized drug (“free drug”), drug associated with bile salt micelles (“micelle bound drug”), and drug in small aggregate roughly 50-300 nm in size (“colloidal drug”). The ultracentrifuge further separates the colloidal drug and the supernatant contains only free drug and micelle bound drug. […]

[2] = system: HID28; assay: Enzalutamide resistant patient-derived xenograft (PDX) model HID28; format: in vivo, nude mice; details: HID28 PDX (AR+ PSA+), castrated male mice, 15 mg/kg, Solution, qd28
Description: (§1) Compound A's activity was measured in a variety of castrate-sensitive and castrate-resistant prostate cancer (CRPC) xenograft models (Table 32).
For example, intact male nude mice were engrafted with HID28 tumor fragments and once tumors reached ˜150 mm^3 the mice were castrated. The mice were enrolled in the experiment once the tumors started to regrow, 10 days post-castration. Compound A was tested in the HID28 PDX model at 60 mg/kg, QD for 28 days using SDD formulation with HPMCAS-H in 0.5% Methocel A4M in water.
Mean tumor volume in castrated nude mice bearing enzalutamide resistant patient-derived xenograft (PDX) model HID28 was measured after oral treatment with solid dispersion composition of Compound A or enzalutamide for 28 days (n=6-7 per group) is shown in FIG. 16B.

[3] = system: PC-3; assay: PC-3 prostate cancer xenograft model; format: in vivo; details: PC-3 (non functional AR), intact male mice, 15 mg/kg, Solution, qd28
Description: as §1

[4] = system: VCaP tumors; assay: VCaP prostate cancer xenograft model; format: in vivo, SCID Beige male mice; details: VCaP (amplified AR, some AR-V7), castrated male mice, 15 mg/kg, Solution, qd24
[5] = system: LNCaP; assay: LNCaP prostate cancer xenograft model; format: in vivo; details: LNCaP (AR FL), castrated male mice, 30 mg/kg, Solution, qd24
Description: as §1

[6] = system: LNCaP95; assay: LNCaP95 prostate cancer xenograft model; format: in vivo; details: LNCaP95 (high level AR-V7), castrated male mice, 15 mg/kg, Solution, qd24
Description: as §1

[7] = Amorphous solubility by slow addition from organic stock, UV/scattering detection; format: physicochemical; details: for solubility: kinetic from dmso stock
Excerpt: Solubility: Generally, the solubility of an amorphous form is higher than that of the corresponding crystal form, due to the lack of crystalline lattice forces in the amorphous state. Solubility of the amorphous form of Compound A was studied by slow addition of the amorphous form from an organic stock solution into the pH 6.5 phosphate-buffered saline (PBS) solution or 0.5% wt simulated intestinal fluid (SIF) in pH 6.5 PBS. When the amorphous solubility is reached, a drug-rich phase forms which typically scatters light (e.g., liquid-liquid phase separation or LLPS), which can be detected by scattering of UV/Visible light and/or by dynamic light scattering (DLS).
No scattering event prior to crystallization was observed.

Structure (SMILES): CC(C)(c1ccc(OCc2ccnc(NS(C)(=O)=O)n2)cc1)c1cc(Cl)c(OCCCl)c(C#N)c1 [Crystalline Compound A, N-(4-((4-(2-(3-chloro-4-(2-chloroethoxy)-5-cyanophenyl)propan-2-yl)phenoxy)methyl)pyrimidin-2-yl)methanesulfonamide]
- Concentration, IB (90 min) [1]: 7 μgA/mL

Structure (SMILES): CNC(=O)c1ccc(N2C(=S)N(c3ccc(C#N)c(C(F)(F)F)c3)C(=O)C2(C)C)cc1F [Enzalutamide, enzalutamide, reference compound]
- TGI (Tumor Growth Inhibition) [2]: <0%
- TGI (Tumor Growth Inhibition) [3]: 0%
- TGI (Tumor Growth Inhibition) [4]: 66%
- TGI (Tumor Growth Inhibition) [5]: >100%
- TGI (Tumor Growth Inhibition) [6]: <0%

Structure (SMILES): CC(C)(c1ccc(OCc2ccnc(NS(C)(=O)=O)n2)cc1)c1cc(Cl)c(OCCCl)c(C#N)c1 [amorphous form of Compound A, N-(4-((4-(2-(3-chloro-4-(2-chloroethoxy)-5-cyanophenyl)propan-2-yl)phenoxy)methyl)pyrimidin-2-yl)methanesulfonamide]
- solubility ([7]; 0.5% wt simulated intestinal fluid (SIF) in pH 6.5 PBS, fassgf or other biorelevant, 0.5% SIF (pH 6.5)): > 25 µg/mL
- solubility ([7]; pH 6.5 phosphate-buffered saline (PBS), aqueous buffer, pH 6.5 PBS): > 2.5 µg/mL
- amorphous solubility relative to crystalline solubility ([7]; simulated intestinal media): at least 20 ×
